# Results taken from patent publication US11298358B2, “Combination therapy using ascochlorin derivative” (priority 2017, dated 2022).
# Read-outs that look alike come from different tables or passages of the source.
# What was measured:
# [1] = Stability against mouse liver microsomes; format: in vitro ADME; conditions: 2 μM compound
# Protocol: (§1) Determination of Stability Against Mouse and Human Microsomes
# (§2) Pooled human liver microsomes (Cat. 452161; Lot. 23418) were purchased from Corning and pooled male mouse liver microsomes (Cat. M1000; Lot. 1210302) were purchased from Xenotech. Microsomes were stored at −80° C. prior to use. 40 μL of ultra-pure H2O was used instead of NADPH solution in the negative control. The negative control was used to exclude the misleading factor that was resulted from instability of chemical itself. Samples with NADPH were prepared in duplicate. Negative controls were prepared in singlet.
# (§3) The reaction was started with the addition of 4 μL of 200 μM compound solution to each master solution to get the final concentration of 2 μM. Verapamil was used as positive control in the assay. Aliquots of 50 μL were taken from the reaction solution at 0, 15, 30, 45 and 60 min. The reaction was stopped by addition of 4 volumes of cold acetonitrile with IS (200 nM imipramine, […] labetalol and 2 μM ketoprofen). Samples were centrifuged at 3,220 g for 40 minutes. Aliquot of 90 μL of the supernatant was mixed with 90 μL of ultra-pure H2O and then was used for LC-MS/MS analysis. Results are shown in Table 3 by indicating remaining % of the test compound after 60 minutes incubation with liver microsomes from human and mouse in the presence of NADPH.
# A549 = experiment: Anti-proliferative activity, CellTiterGlo assay, A549; format: cell-based; conditions: Homo sapiens; A549, 96 hrs incubation; read-out: Antiproliferative activities (IC50) A549
# Protocol: (§4) The anti-proliferative activities of the compounds against 6 human cancer cell lines were determined by CellTiterGlo assay kit. All cells were obtained from ATCC and cultured as recommended by the vendor. Cells were assayed in exponential growth phase. Sample solution was prepared by 3-fold serial dilution from 30 mM stock for 10 doses in DMSO. Antiproliferative activities were measured by CellTiterGlo assay kit according to the protocol after cells were incubated for 96 hrs in a 37° C., 5% CO2 incubator.
# (§5) On the 4th day of incubation, i) 15 μl reagent (CelltiterGlo assay kit) was added per well and plate was shaken (avoiding light) for 2 mins on a plate shaker, ii) the plate was kept (avoiding light) in room temperature for 30 min, and iii) the luminescence value was recorded by Multiplate reader.
# MDA-MB-231 = experiment: Anti-proliferative activity, CellTiterGlo assay, MDA-MB-231; format: cell-based; conditions: Homo sapiens; MDA-MB-231, 96 hrs incubation; read-out: Antiproliferative activities (IC50) MDA-MB-231
# Protocol: as §4, §5
# HT29 = experiment: Anti-proliferative activity, CellTiterGlo assay, HT29; format: cell-based; conditions: Homo sapiens, HT-29; HT29, 96 hrs incubation; read-out: Antiproliferative activities (IC50) HT29
# Protocol: as §4, §5
# U87-MG = experiment: Anti-proliferative activity, CellTiterGlo assay, U87-MG; format: cell-based; conditions: Homo sapiens, U-87 MG, 96 hrs incubation, read-out: Antiproliferative activities (IC50) U87-MG
# Protocol: as §4, §5
# LNCaP = experiment: Anti-proliferative activity, CellTiterGlo assay, LNCaP; format: cell-based; conditions: Homo sapiens, 96 hrs incubation, read-out: Antiproliferative activities (IC50) LNCaP
# Protocol: as §4, §5
# [2] = Stability against human liver microsomes; format: in vitro ADME; conditions: 2 μM compound
# Protocol: as §1, §2, §3
# BxPC-3 = experiment: Anti-proliferative activity, CellTiterGlo assay, BxPC-3; format: cell-based; conditions: Homo sapiens; BxPC-3, 96 hrs incubation; read-out: Antiproliferative activities (IC50) BxPC-3
# Protocol: as §4, §5
# AMPK in HepG2 cell = conditions: HepG2 cells, reported in the literature; cited from earlier work
# CT26 tumor cells = experiment: Efficacy study in CT26 syngeneic mouse model; format: in vivo; conditions: for antitumor activity (in words): Cmpd 19 alone
# Protocol: An efficacy study was conducted by using Compound 19 (Cmpd 19) with CT26 syngeneic mouse model. Female BALB/c mice (Vital River, Beijing, China) of 7 to 9 weeks old with body weight between 19 and 21 g were used. Each mouse was inoculated subcutaneously on the right flank with CT26 tumor cells (2×10^5) in 0.1 mL of PBS for tumor development. On Day 5 after tumor inoculation, mice were randomized into groups. Each group consisted of 10 tumor-bearing mice. The treatment with Cmpd 19 was then started on Day 5.
# As an anti PD-1 antibody, anti-mouse PD-1 antibody (CD279, Clone: RMP1-14, Catalog #: BE0146 from Bio X Cell) was used.
# The measurement of tumor size was conducted three times weekly with calipers, and the tumor volume (mm^3) is estimated using the formula: TV=(a×b^2)/2, where “a” and “b” are long and short diameters of a tumor, respectively. The TVs were used for calculation of the tumor growth inhibition (TGI, an indicator of antitumor effectiveness), using formula: TGI=(1−T/C)×100%, where “T” and “C” are the mean relative volumes (% tumor growth) of the tumors in the treated and the control groups. Data were analyzed using GraphPad Software and represented as the mean value±SD in FIG. 3 in which error bars are shown. The p values were assessed using One-Way ANOVA Dunnett test and vehicle control (G1) as control group. A case with p<0.05 was considered as statistically significant.
# [3] = Solubility in pH4.0 and pH7.4 phosphate buffer solution; conditions: 2 hr incubation, 25° C.
# Protocol: 1) Preparation of Stock Solutions
# The stock solutions of test compounds and positive control compound were prepared in DMSO at the concentration of 30 mM. Diclofenac was used as positive control in the assay.
# 2) Procedures for Solubility Determination
# The stock solution of each compound (10 μL) was placed in order into their proper 96-well rack, followed by adding 990 μL of PBS at pH 4.0 and pH 7.4 into each vial of the cap-less Solubility Sample plate. This study was performed in duplicate. One stir stick was added to each vial and then vials were sealed using a molded PTDE/SIL 96-Well Plate Cover. The Solubility Sample plate was transferred to the Thermomixer Comfort plate shaker and incubated at 25° C. for 2 hours with shaking at 1,100 rpm. After 2 hours incubation, stir sticks were removed using a big magnet and all samples from the Solubility Sample plate were transferred into the filter plate. All the samples were filtered by using the vacuum manifold. The filtered samples were diluted with methanol.
# 3) Samples Analyzed by LC-MS/MS:
# The LC system comprised a Shimadzu liquid chromatograph separation system equipped with degasser DGU-20A3, solvent delivery unit LC-20AD, system controller CBM-20A, column oven CTO-10ASVP and CTC Analytics HTC PAL System. Mass spectrometric analysis was performed using an API 4000 instrument from AB Inc (Canada) with an ESI interface.
# [4] = G3: Cmpd 19 50 mg/kg p.o. once a day x 18
# [5] = G4: Cmpd 19 25 mg/kg p.o. once a day x 18
compound,measurement,setting,value
"COc1c(Cl)c(C)c(/C=N/O)c(O)c1C/C=C(C)/C=C/[C@@]1(C)[C@H](C)CC[C@](C)(O)[C@@H]1C [Compound 7, 4-chloro-2-[(2E,4E)-5-[(1R,2R,3S,6R)-3-hydroxy-1,2,3,6-tetramethylcyclohexyl]-3-methylpenta-2,4-dien-1-yl]-6-[(1E)-(hydroxyimino)methyl]-3-methoxy-5-methylphenol]","Liver microsome stability remaining % after 60 min incubation with NADPH, mouse LM",[1],71%
same,IC50,A549,6.5 µM
same,IC50,MDA-MB-231,6.8 µM
same,IC50,HT29,10 µM
same,IC50,U87-MG,13.1 µM
same,IC50,LNCaP,7.2 µM
same,"Liver microsome stability remaining % after 60 min incubation with NADPH, human LM",[2],71%
same,IC50,BxPC-3,12.8 µM
CN(C)C(=N)N=C(N)N [Metformin],AMPK activation in HepG2 cell,AMPK in HepG2 cell,only at surprisingly high concentration of mM level
"CO/N=C/c1c(C)c(Cl)c(OC)c(C/C=C(C)/C=C/[C@@]2(C)[C@H](C)CC/C(=N\OCC(=O)O)[C@@H]2C)c1O [Compound 19, 2-([[(1E,2R,3R,4R)-3-[(1E,3E)-5-[3-chloro-6-hydroxy-2-methoxy-5-[(1E)-(methoxyimino)methyl]-4-methylphenyl]-3-methylpenta-1,3-dien-1-yl]-2,3,4-trimethylcyclohexylidene]amino]oxy)acetic acid]",antitumor activity (in words),CT26 tumor cells; 25 mg/kg p.o.,minor or no antitumor activity
same,antitumor activity (in words),CT26 tumor cells; 50 mg/kg p.o.,minor or no antitumor activity
same,TGI (%),CT26 tumor cells; [4],−1.4%
same,"Tumor volume (mm^3, on Day 23)",CT26 tumor cells; [4],"6,483 ± 310 mm^3"
same,TGI (%),CT26 tumor cells; [5],6.5%
same,"Tumor volume (mm^3, on Day 23)",CT26 tumor cells; [5],"6,056 ± 689 mm^3"
COc1c(Cl)c(C)c(C=NCC(N)=O)c(O)c1C/C=C(C)/C=C/[C@@]1(C)[C@H](C)CCC(=O)[C@@H]1C [compound #13 in WO2004/074236],Solubility pH 4.0 PBS,[3]; pH 4.0 phosphate buffer solution,converted to MAC
same,Solubility pH 7.4 PBS,[3]; pH 7.4 phosphate buffer solution,0.02 μM
"COc1c(Cl)c(C)c(C=O)c(O)c1C/C=C(C)/C=C/[C@@]1(C)[C@H](C)CCC(=O)[C@@H]1C [MAC, 4-O-Methy-ascochlorin]",AMPK activation in HepG2 cell,AMPK in HepG2 cell,ability for activating AMPK
same,Solubility pH 4.0 PBS,pH 4,<0.08 μM
same,Solubility pH 7.4 PBS,pH 7.4,0.07 μM
"CO/N=C/c1c(C)c(Cl)c(OC)c(C/C=C(C)/C=C/[C@@]2(C)[C@H](C)CC[C@](C)(O)[C@@H]2C)c1O [Compound 14, 4-chloro-2-[(2E,4E)-5-[(1R,2R,3S,6R)-3-hydroxy-1,2,3,6-tetramethylcyclohexyl]-3-methylpenta-2,4-dien-1-yl]-3-methoxy-6-[(1E)-(methoxyimino)methyl]-5-methylphenol]","Liver microsome stability remaining % after 60 min incubation with NADPH, mouse LM",[1],88%
same,"Liver microsome stability remaining % after 60 min incubation with NADPH, human LM",[2],99%
